For series [1] the following is noted: cited from earlier work.
The next series has as its target T1, uricase (Cyberlindnera jadinii, UniProt P78609).
T1 construct: purchased Sigma U0880
T1 sequence (P78609 1-303): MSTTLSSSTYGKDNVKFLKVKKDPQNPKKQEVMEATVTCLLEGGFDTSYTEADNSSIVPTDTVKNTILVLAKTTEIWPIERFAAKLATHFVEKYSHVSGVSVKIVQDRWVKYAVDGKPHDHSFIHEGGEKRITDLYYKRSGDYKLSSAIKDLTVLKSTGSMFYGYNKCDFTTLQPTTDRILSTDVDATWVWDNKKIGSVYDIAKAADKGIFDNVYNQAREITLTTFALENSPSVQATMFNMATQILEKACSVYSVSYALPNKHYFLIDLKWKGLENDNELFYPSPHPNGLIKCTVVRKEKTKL
The series is described as follows: Stability of uricase at 60° C. (enzyme activity recovery, optical assay) with preservative and additives. Type of series: biochemical. The conditions noted are these: pH 8.0. How it is done: Uricase was obtained from Sigma (U0880). The enzyme was formulated at 100 μg/ml. Measurements of enzyme activity were performed on a 96-well plate using an optical assay: 10 μl of the formulation was mixed with […] (borate buffer 25 mM, pH 8.5) and 50 μL substrate (sodium urate 2 mM). The mixture was equilibrated at room temperature for about 5 min. After 5 min, the following reagents were added in this particular order to each sample (the first reagent must be added at exactly 5 min, the timing of the other reagents addition is less crucial): 50 μl of citrate/phosphate buffer (0.5 M. pH 4.0); 15 μL of TMB (3 mg/mL, dissolved in DMSO) then 15 μL of lactoperoxidase (1 mg/mL, dissolved in water). The resulting solution was mixed thoroughly and absorbance was read at 630 nm using a plate reader. Optical density was calibrated using a range of concentrations of a reference enzyme solution. All measurements were carried out in triplicates and average value was recorded. Stability of enzyme was found in the preliminary experiments to be optimal at pH around 8.0, with minimal effect of ionic strength on the stability. The preservation of the enzyme activity was studied in a background formulation containing 10 mM histidine and 300 mM 1,2-propanediol, adjusted to pH 8. […] The effect of the stabilizing excipients was studied by comparing the stability of uricase in the solution containing the preservative only with that in the solution containing both the preservative and the stabilizing component. The concentration of the additives tested was selected based on their solubility in aqueous solutions.

For series [2], the target named is human growth hormone (hGH) (Homo sapiens, UniProt P01241). The series is described as follows: Formation of high molecular weight species (HMWS) in aqueous hGH solutions at 40° C., size-exclusion HPLC. To be noted: 10 mM benzoate anion, background solutions 1 and 2, 40° C. It counts as physicochemical. As to the method:
Formation of high molecular weight species (HMWS) was followed in aqueous solutions of hGH (15 mg/mL) using the following size-exclusion HPLC method: The mobile phase was prepared by mixing 97 parts (v/v) of 63 mM sodium phosphate (pH 7.0) with 3 parts (v/v) of propan-2-ol. The mobile phase was filtered prior to its use. The liquid chromatograph (Agilent 1100 series) was equipped with a 214 nm detector, guard column and a 7.8×300 mm BioSep SEC-S2000 column. The flow rate was maintained at 0.6 ml/min. 15 μl of aqueous samples of hGH were injected. The percentage of HMS was expressed as the ratio of the total area of all peaks with shorter elution time than the monomeric form of hGH versus the total peak area, ignoring peaks corresponding the excipients. The hGH solutions were incubated at 40° C. and assessed for the presence of HMWS at specific timepoints. In addition, the samples were assessed by eye for signs of visible precipitation.
For orientation: In gel filtration, larger molecules generally elute earlier.

For series [3], the system named is horseradish peroxidase (HRP). The series is described as follows: Stability of horseradish peroxidase (HRP) at 60° C. (enzyme activity recovery, optical assay) with preservative and additives. It counts as biochemical. As to the method: HRP was obtained from Sigma (P8250), The enzyme was formulated at 0.5 mg/ml. Measurements of enzyme activity were performed on a 96-well plate using an optical assay: 20 μl of the formulation was mixed with 180 μl enzyme diluent solution (1.82 mM ABTS, 28 mM hydrogen peroxide in 0.1M sodium phosphate buffer pH 7.0). The resulting solution was mixed thoroughly and absorbance was read at 630 nm using a plate reader after 5 min. Optical density was calibrated using a range of concentrations of a reference enzyme solution. All measurements were carried out in triplicates and average value was recorded. Stability of enzyme was found in the preliminary experiments to be optimal at pH around 7.0 and relatively independent of ionic strength. The preservation of the enzyme activity was studied in background formulations containing 10 mM TRIS and 1,2-propanediol (300 mM) at pH 7.0. With the exception of control solutions, the solutions contained m-cresol (30 mM). The effect of the stabilizing excipients was studied by comparing the stability of HRP in the solution containing the preservative only with that in the solution containing both the preservative and the stabilizing component. The concentration of the additives tested was selected based on their solubility in aqueous solutions.

Like-named read-outs stand apart in the source and are kept apart here.

Chain of human growth hormone (hGH) (P01241 27-217): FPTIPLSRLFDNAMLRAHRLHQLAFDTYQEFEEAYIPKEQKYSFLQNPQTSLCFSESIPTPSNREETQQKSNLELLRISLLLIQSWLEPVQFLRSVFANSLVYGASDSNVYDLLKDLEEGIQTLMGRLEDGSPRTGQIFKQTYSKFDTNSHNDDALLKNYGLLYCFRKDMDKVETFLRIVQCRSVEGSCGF

As for `O=C(O)/C=C\c1ccccc1` [cis-cinnamic acid], in series [1] (first or only value given), the “pKa value(s) of carboxylate group(s)” value is on record as 3.89.
Turning to `O=C(O)c1ccc2ccccc2c1` [2-naphthoic acid], the “pKa value(s) of carboxylate group(s)” value in series [1] (first or only value given) is 4.17.
On to `O=C(O)Cc1c[nH]c2ccccc12` [indole-3-acetic acid], for which the “pKa value(s) of carboxylate group(s)” value in series [1] (first or only value given) is 4.75.
Take `OCc1ccccc1` [Benzyl alcohol]: the “Effect on stability of uricase at 60° C.” value at uricase is on record as “impairment of stability”.
`O=C([O-])c1ccccc1.[K+]` [benzoate anion, potassium benzoate]: the “Effect on rate of HMWS formation” value in series [2] is “lower rate of HMWS formation”.
As to `O=C(O)c1cc(O)c(O)c(O)c1` [3,4,5-trihydroxybenzoic acid], in series [1] (first or only value given), the “pKa value(s) of carboxylate group(s)” value is 4.41.
For the molecule `COc1cc(C(=O)O)ccc1O` [4-hydroxy-3-methoxybenzoic acid], in series [1] (first or only value given), the “pKa value(s) of carboxylate group(s)” value is 4.5.
Turning to `Cc1cccc(O)c1` [m-Cresol], the “Effect on stability of HRP at 60° C.” value in series [3] (60° C., pH 7.0) is “slight impairment of stability”.
As for `O=C(O)C1CCCCC1` [Cyclohexane carboxylic acid, reference compound], on uricase, the “Effect on stability of uricase at 60° C.” value is “increase in the destabilising effect”.
For “HRP: HRP obtained from Sigma (P8250), formulated at 0.5 mg/ml”, the “pH of optimal stability of enzyme” value in series [3] (preliminary experiments) is reported as “around 7.0”.
In the case of `Oc1ccccc1` [Phenol], the “Effect on stability of uricase at 60° C.” value at uricase is listed as “impairment of stability”.
`O=C(O)c1ccccc1C(=O)O` [phthalic acid]: in series [1] (second value printed (second carboxylate group)), the “pKa value(s) of carboxylate group(s)” value was 5.28.

The values above are taken from patent US10925965B2, “Protein formulations with increased stability” (Arecor Limited, priority 2010, dated 2021).
